According to ChEMBL document CHEMBL1131037, “Structure-based design, synthesis, and biological evaluation of irreversible human rhinovirus 3C protease inhibitors. 2. Peptide structure-activity studies” (J Med Chem, 1998):

Columns and labels:
rhinovirus B14 [1] = assay: Antiviral activity against HRV-14 in cell culture; assay type: functional, organism-based; details: Rhinovirus B
[2] = target: T1, Human rhinovirus A protease (Human rhinovirus sp.) (UniProt Q4U254); assay: Binding affinity on human Rhinovirus 3C protease (rhinovirus serotype 14)
T1 sequence (whole entry): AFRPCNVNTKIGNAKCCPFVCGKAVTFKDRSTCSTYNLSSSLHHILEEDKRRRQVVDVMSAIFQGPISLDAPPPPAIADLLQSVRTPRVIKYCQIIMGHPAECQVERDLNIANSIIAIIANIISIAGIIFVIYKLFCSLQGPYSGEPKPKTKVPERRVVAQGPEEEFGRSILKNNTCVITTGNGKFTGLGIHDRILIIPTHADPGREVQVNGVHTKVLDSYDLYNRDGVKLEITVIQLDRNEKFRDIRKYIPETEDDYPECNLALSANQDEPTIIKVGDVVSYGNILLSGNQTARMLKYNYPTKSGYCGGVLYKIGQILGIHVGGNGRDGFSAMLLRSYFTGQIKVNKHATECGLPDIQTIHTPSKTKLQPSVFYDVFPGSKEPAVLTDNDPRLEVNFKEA

rhinovirus B14 [3] = assay: Cytotoxic activity against HRV-14 in cell culture; assay type: functional, rhinovirus 14; details: Rhinovirus B

Structure (SMILES) | EC50 (rhinovirus B14 [1]) | K obs / 1 [2] | CC50 (rhinovirus B14 [3])
CCOC(=O)/C=C/[C@H](CCC(N)=O)NC(=O)[C@H](Cc1ccc(C#N)cc1)NC(=O)[C@H](CC(C)C)NC(=O)OCc1ccccc1 | 5.6 µM | 10800 M⁻¹ s⁻¹ | > 320 µM
CCOC(=O)/C=C/[C@H](CCC(N)=O)NC(=O)[C@H](Cc1ccccc1)NC(=O)[C@H](CC(C)C)NC(=O)SC | 1.1 µM | 69800 M⁻¹ s⁻¹ | > 320 µM
CCOC(=O)/C=C/[C@H](CCC(C)=O)NC(=O)[C@H](Cc1ccccc1)NC(=O)[C@H](CC(C)C)NC(=O)OCc1ccccc1 | 1.6 µM | 1400 M⁻¹ s⁻¹ | > 100 µM
CCOC(=O)/C=C/[C@H](CCC(N)=O)NC(=O)[C@H](Cc1ccccc1)NC(=O)[C@H](CC(C)C)NC(=O)C(C)C | 1 µM | 18800 M⁻¹ s⁻¹ | > 320 µM
CCOC(=O)/C=C/[C@H](CCC(N)=O)NC(=O)[C@H](Cc1ccccc1)NC(=O)[C@H](CCc1ccccc1)NC(=O)OCc1ccccc1 | 0.25 µM | 57000 M⁻¹ s⁻¹ | > 320 µM
CCOC(=O)/C=C/[C@H](CCC(N)=O)NC(=O)[C@H](Cc1ccccc1)NC(=O)[C@H](C)NC(=O)OCc1ccccc1 | 2 µM | 11300 M⁻¹ s⁻¹ | > 320 µM
CCOC(=O)/C=C/[C@H](CCC(N)=O)NC(=O)OCc1ccccc1 | > 100 µM | 4.5 M⁻¹ s⁻¹ | > 100 µM
CCOC(=O)/C=C/[C@H](CCC(N)=O)NC(=O)[C@H](Cc1ccc(C)cc1)NC(=O)[C@@H](NC(=O)SC1CCCC1)C(C)(C)C | 0.056 µM |  | 
CCOC(=O)/C=C/[C@H](CCC(N)=O)NC(=O)[C@H](Cc1ccccc1)NC(=O)[C@H](CC(C)C)NC(=O)[C@@H](NC(C)=O)C(C)C | 63 µM | 26700 M⁻¹ s⁻¹ | > 100 µM
CCOC(=O)/C=C/[C@H](CCC(N)=O)NC(=O)[C@H](Cc1ccccc1)NC(=O)[C@H](CCC(=O)O)NC(=O)OCc1ccccc1 | 5.5 µM | 78900 M⁻¹ s⁻¹ | > 320 µM
CCOC(=O)/C=C/[C@H](CNC(N)=O)NC(=O)[C@H](Cc1ccccc1)NC(=O)[C@H](CC(C)C)NC(=O)OCc1ccccc1 | 32 µM | 3500 M⁻¹ s⁻¹ | > 100 µM
CCOC(=O)/C=C/[C@H](CCC(N)=O)NC(=O)[C@H](Cc1ccccc1)NC(=O)[C@H](Cc1ccccc1)NC(=O)OCc1ccccc1 | 0.56 µM | 162000 M⁻¹ s⁻¹ | > 320 µM
CCOC(=O)/C=C/[C@H](CCC(N)=O)NC(=O)[C@H](Cc1ccccc1)NC(=O)[C@H](CC(C)C)NC(=O)[C@@H](NC(C)=O)[C@@H](C)O | > 100 µM | 4600 M⁻¹ s⁻¹ | > 100 µM
CCOC(=O)/C=C/[C@H](CCC(N)=O)NC(=O)[C@H](Cc1ccccc1)NC(=O)[C@H](CC1CCCCC1)NC(=O)OCc1ccccc1 | 1.2 µM | 39000 M⁻¹ s⁻¹ | > 320 µM
CCOC(=O)/C=C/[C@H](CCC(N)=O)NC(=O)[C@H](Cc1ccccc1)NC(=O)[C@H](CC(C)C)NC(=O)[C@H](C)NC(C)=O | 20 µM | 43400 M⁻¹ s⁻¹ | > 100 µM
CCOC(=O)/C=C/[C@H](CCC(N)=O)NC(=O)[C@H](Cc1ccccc1)NC(=O)[C@H](CC(C)C)NC(=O)c1ccc2ccccc2c1 | 1 µM | 21000 M⁻¹ s⁻¹ | > 320 µM
CCOC(=O)/C=C/[C@H](CC[S+](C)[O-])NC(=O)[C@H](Cc1ccccc1)NC(=O)[C@H](CC(C)C)NC(=O)OCc1ccccc1 (stereo partly specified) | 1.6 µM | 2200 M⁻¹ s⁻¹ | > 100 µM
CCOC(=O)/C=C/[C@H](CCC(N)=O)NC(=O)[C@H](CCC(=O)O)NC(=O)[C@H](CC(C)C)NC(=O)OCc1ccccc1 | > 320 µM | 200 M⁻¹ s⁻¹ | > 320 µM
CCOC(=O)/C=C/[C@H](CCC(N)=O)NC(=O)[C@H](Cc1ccccc1)NC(=O)[C@H](CC(C)C)NC(C)=O | 14 µM | 3700 M⁻¹ s⁻¹ | > 320 µM
CCOC(=O)/C=C/[C@H](CCC(N)=O)NC(=O)[C@H](Cc1ccccc1)NC(=O)[C@H](CSc1ccccc1)NC(=O)OCc1ccccc1 | 0.12 µM | 141000 M⁻¹ s⁻¹ | > 320 µM
CCOC(=O)/C=C/[C@H](CNC(C)=O)NC(=O)[C@H](Cc1ccccc1)NC(=O)[C@H](CC(C)C)NC(=O)OCc1ccccc1 | 2.2 µM | 800 M⁻¹ s⁻¹ | > 320 µM
CCOC(=O)/C=C/[C@H](CCC(N)=O)NC(=O)[C@H](Cc1ccccc1)NC(=O)[C@H](CSC)NC(=O)OCc1ccccc1 | 0.18 µM | 35200 M⁻¹ s⁻¹ | > 100 µM
CCOC(=O)/C=C/[C@H](CCC(=O)O)NC(=O)[C@H](Cc1ccccc1)NC(=O)[C@H](CC(C)C)NC(=O)OCc1ccccc1 | 14 µM | 500 M⁻¹ s⁻¹ | > 100 µM
CCOC(=O)/C=C/[C@H](CCC(N)=O)NC(=O)[C@H](Cc1ccccc1)NC(=O)[C@H](CC(C)C)NC(=O)c1ccc(Oc2ccccc2)cc1 | 5.2 µM | 8000 M⁻¹ s⁻¹ | > 320 µM

Structure (SMILES) | EC50 (rhinovirus B14 [1]) | K obs / 1 [2] | CC50 (rhinovirus B14 [3])
CCOC(=O)/C=C/[C@H](CCC(N)=O)NC(=O)[C@H](Cc1ccc(C(N)=O)cc1)NC(=O)[C@H](CC(C)C)NC(=O)OCc1ccccc1 | > 177 µM | 9600 M⁻¹ s⁻¹ | 177 µM
CCOC(=O)/C=C/[C@H](CCC(N)=O)NC(=O)[C@H](Cc1ccccc1)NC(=O)[C@H](CC(C)C)NC(=O)SC1CCCC1 | 0.18 µM | 114000 M⁻¹ s⁻¹ | > 100 µM
CCOC(=O)/C=C/[C@H](CCC(N)=O)NC(=O)[C@H](Cc1ccccc1)NC(=O)[C@@H](NC(=O)OCc1ccccc1)[C@H](C)O | 1.8 µM | 38900 M⁻¹ s⁻¹ | > 320 µM
CCOC(=O)/C=C/[C@H](CCC(N)=O)NC(=O)[C@H](Cc1ccccc1)NC(=O)[C@H](CC(C)C)NC(=O)OCc1ccccc1C | 1 µM | 41800 M⁻¹ s⁻¹ | > 100 µM
CCOC(=O)/C=C/[C@H](CCC(N)=O)NC(=O)[C@H](Cc1ccccc1)NC(=O)[C@@H](NC(=O)OCc1ccccc1)[C@@H](C)CC | 0.79 µM | 31700 M⁻¹ s⁻¹ | > 100 µM
CCOC(=O)/C=C/[C@H](CCC(N)=O)NC(=O)[C@H](Cc1ccccc1)NC(=O)[C@H](CCCN1CCOCC1)NC(=O)OCc1ccccc1 | 7.1 µM | 43300 M⁻¹ s⁻¹ | > 100 µM
CCOC(=O)/C=C/[C@H](CCC(N)=O)NC(=O)[C@H](Cc1ccccc1)NC(=O)[C@H](CC(C)C)NC(=O)C(C)(C)C | 1.8 µM | 8200 M⁻¹ s⁻¹ | > 100 µM
CCOC(=O)/C=C/[C@H](CO)NC(=O)[C@H](Cc1ccccc1)NC(=O)[C@H](CC(C)C)NC(=O)OCc1ccccc1 | > 190 µM | 0 M⁻¹ s⁻¹ | 190 µM
CCOC(=O)/C=C/[C@H](CCC(N)=O)NC(=O)[C@H](Cc1ccc(OP(=O)(O)O)cc1)NC(=O)[C@H](CC(C)C)NC(=O)OCc1ccccc1 | 14 µM | 1200 M⁻¹ s⁻¹ | > 320 µM
CCOC(=O)/C=C/[C@H](CCC(N)=O)NC(=O)[C@H](Cc1ccccc1)NC(=O)[C@@H](NC(=O)OCc1ccccc1)[C@H](C)SC(C)C | 10 µM | 40000 M⁻¹ s⁻¹ | > 100 µM
CCOC(=O)/C=C/[C@H](CCC(N)=O)NC(=O)[C@H](Cc1ccccc1)NC(=O)[C@H](CC(=O)N(C)C)NC(=O)OCc1ccccc1 | 5.9 µM | 22600 M⁻¹ s⁻¹ | > 320 µM
CCOC(=O)/C=C/[C@H](CCC(N)=O)NC(=O)[C@H](Cc1ccccc1)NC(=O)[C@H](CCSC)NC(=O)OCc1ccccc1 | 1.4 µM | 46200 M⁻¹ s⁻¹ | > 100 µM
CCOC(=O)/C=C/[C@H](CCC(N)=O)NC(=O)[C@H](Cc1ccccc1)NC(=O)[C@H](CC(C)C)NC(=O)OC1CCCCC1 | 7.6 µM | 15500 M⁻¹ s⁻¹ | > 100 µM
CCOC(=O)/C=C/[C@H](CCC(N)=O)NC(=O)[C@H](Cc1ccccc1)NC(=O)[C@H](CC(C)C)NC(=O)OCc1ccccc1Cl | 0.63 µM | 19000 M⁻¹ s⁻¹ | > 100 µM
CCOC(=O)/C=C/[C@H](CCC(=O)NC)NC(=O)[C@H](Cc1ccccc1)NC(=O)[C@H](CC(C)C)NC(=O)OCc1ccccc1 | 5.6 µM | 750 M⁻¹ s⁻¹ | > 100 µM
CCOC(=O)/C=C/[C@H](CCC(N)=O)NC(=O)[C@H](Cc1ccccc1)NC(=O)[C@@H](NC(=O)OCc1ccccc1)c1ccccc1 |  | 20700 M⁻¹ s⁻¹ | 
CCOC(=O)/C=C/[C@H](CCC(N)=O)NC(=O)[C@H](Cc1ccc(COC)cc1)NC(=O)[C@H](CC(C)C)NC(=O)OCc1ccccc1 | 39 µM | 7100 M⁻¹ s⁻¹ | > 320 µM
CCOC(=O)/C=C/[C@H](CCC(N)=O)NC(=O)[C@H](Cc1ccc(OC(C)=O)cc1)NC(=O)[C@H](CC(C)C)NC(=O)OCc1ccccc1 | 11 µM | 1200 M⁻¹ s⁻¹ | > 320 µM
CCOC(=O)/C=C/[C@H](CCC(N)=O)NC(=O)[C@H](Cc1ccccc1)NC(=O)[C@H](CC(C)C)NC(=O)CO | 30 µM | 2100 M⁻¹ s⁻¹ | > 320 µM
CCOC(=O)/C=C/[C@H](CCC(N)=O)NC(=O)[C@H](CSC)NC(=O)[C@H](CC(C)C)NC(=O)OCc1ccccc1 | 8.9 µM | 2900 M⁻¹ s⁻¹ | > 320 µM
CCOC(=O)/C=C/[C@H](CCC(N)=O)NC(=O)[C@H](Cc1ccccc1)NC(=O)[C@@H](NC(=O)OCc1ccccc1)C(C)(C)CO | 1.3 µM | 40000 M⁻¹ s⁻¹ | > 100 µM
CCOC(=O)/C=C/[C@H](CCC(=O)NC(c1ccccc1)(c1ccccc1)c1ccccc1)NC(=O)[C@H](Cc1ccccc1)NC(=O)[C@H](CC(C)C)NC(=O)OCc1ccccc1 | 100 µM | 0 M⁻¹ s⁻¹ | > 320 µM
CCOC(=O)/C=C/[C@H](CCC(N)=O)NC(=O)[C@H](Cc1ccccc1)NC(=O)[C@H](CC(C)C)NC(=O)OCc1ccccc1 | 0.54 µM |  | > 320 µM
